# Measurements reported in US20240374744A1, “PROTEIN AND PHARMACEUTICAL COMPOSITION COMPRISING SAME FOR PREVENTION OR TREATMENT OF CANCER” (CELLEMEDY CO., LTD, priority 2021, published 2024).
# Assays:
# Type in all cases: cell-based
# Normal lung cells IMR-90 = experiment: CCK (cell counting kit) cytotoxicity assay, IMR-90; conditions: IMR-90 cell; anticancer drug alone vs protein nanoparticle conjugate, from IC50
# Description: (§1) Normal lung cells WI-38 and IMR-90, and normal colon cells CCD-18co were grown in 96-well microplate with 1×10^4 cells/well for 36 hours, and the cytotoxicity when only anticancer drug was added and the cytotoxicity when protein nanoparticle-anticancer drug conjugate was added were compared.
# [1] = tested on: normal colon cells CCD-18co; experiment: CCK (cell counting kit) cytotoxicity assay, CCD-18co; conditions: CCD-18co cell; anticancer drug alone vs protein nanoparticle conjugate, from IC50
# Description: as §1
# Normal lung cells WI-38 = experiment: CCK (cell counting kit) cytotoxicity assay, WI-38; conditions: WI-38 cell; anticancer drug alone vs protein nanoparticle conjugate, from IC50
# Description: as §1
Compound,drug toxicity reduction (DTR) (Normal lung cells IMR-90),drug toxicity reduction (DTR) [1],drug toxicity reduction (DTR) (Normal lung cells WI-38)
"COc1cccc2c1C(=O)c1c(O)c3c(c(O)c1C2=O)C[C@@](O)(C(=O)CO)C[C@@H]3O[C@H]1C[C@H](N)[C@H](O)[C@H](C)O1 [DOX, doxorubicin]",316,91,263
"Nc1ccn([C@@H]2O[C@H](CO)[C@@H](O)C2(F)F)c(=O)n1 [GEM, gemcitabine]",7244,8913,3162
